Reference: patent publication US20230321188A1, “AUTOPHAGY INDUCING PEPTIDES” (TRANSLATIONAL HEALTH SCIENCE AND TECHNOLOGY INSTITUTE, priority 2020, published 2023)
Where a SMILES comes first, the peptide text is derived from it.

T1: GAPR-1 (UniProt Q9H4G4 2-154, limits assumed)
T1 construct: Purified protein used in MST; also called purified Gapr-1
T1 sequence (looked up): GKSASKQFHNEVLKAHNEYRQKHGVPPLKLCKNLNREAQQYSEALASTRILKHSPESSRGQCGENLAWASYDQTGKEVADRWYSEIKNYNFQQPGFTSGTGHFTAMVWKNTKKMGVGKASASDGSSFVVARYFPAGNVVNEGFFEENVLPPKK


Columns and labels:
[1] = test system: mTOR; test: mTOR independent activation of autophagy: western blot of S6Kinase / 4E-BP1 phosphorylation; type: cell-based; conditions: Huh7 cells, peptides 10 μM, 6 h
Experimental: FIG. 5 depicts mTOR independent activation of autophagy Huh7 cells were treated with peptides (10 μM) and torin1 (1 μM) for 6 h and lysed in lysis buffer (1mM EDTA, 20 mM Tris-HCl pH 7.4, 250 mM NaCl, PMSF, and PI). Western blot was performed by GAPDH (internal control), […] and S6K1 antibodies. The peptides were tested for inhibition of mTOR by testing for phosphorylation of enzyme p70S6K. The phosphorylation of p-p70S6K at threonine 389 has been used as a hallmark of activation by mTOR.
Huh7/HeLa cells were treated with peptides 10 μM for 6 h and protein lysates were analysed by western blotting using pS6Kinase, S6Kinase, p-4E-BP1, 4E-BP1 and GAPDH antibodies. Torin 1 was used as positive control.

[2] = test system: S. typhimurium; type: cell-based; conditions: 24 h
[3] = test system: S. typhimurium (strain Xen33); test: In vivo S. typhimurium (Xen33) infection and disease progression in FVB mice
Experimental: For the in vivo studies, mouse S. typhimurium (strain Xen33) infection carried out as per the previous protocol of Griffin et al., 2011. In brief, mice were pre-treated with streptomycin. Water and food were withdrawn before 4hours of infection. For the experiments, 6-8 weeks of FVB male mice were utilized in a group of 5. Mice related experiments and its maintenance were carried out in a small animal facility at THSTI, Faridabad. […] FVB mice were infected orally with Xen-33(S. typhimurium) and its bioluminescence was measured by in vivo imaging with IVIS Lumina (Perkin Elmer) and quantified with living image software version 4.2. Bioluminescent levels were measured as radiance (p/sec/cm^2/sr), by using a pseudo scale for measurement in which blue represents low intensity and red represents high intensity. Posts in vivo imaging, the bacterial burden in faecal sample were also measured.
Mice having Salmonella typhimurium infection or non-infected were sacrificed and their intestine was removed for immunohistochemistry studies. Intestines were washed with PBS and fixed in 10% formaldehyde. Thereafter, fine-sectioned on a microtome. Tissue blocks were prepared on Paraffin wax and then hematoxylin and eosin (HE) staining was carried out. The finally stained sections were then observed, and images were acquired by using the Ti Eclipse Nikon microscope. The scoring was done by random scoring by different individuals.
In vivo effect of p7T treatment on S. typhimurium infection and disease progression in FVB mice. Recovery of chronically S. typhimurium infected FVB mice was studied in the presence of P7T&P13T. […] Colon samples were further examined for histological changes. […] The stool was collected, plated on SS agar to determine S. typhimurium colony formation.
(c) In vivo imaging and intensity quantitation of mice infected with S. typhimurium strain (Xen33) expressing luciferase on the 8th day (n=5 mice per group). […] (i) Immunohistochemistry images (40×) showing expression of HIF-1α and its quantification in the colon (n=5). […] Data representative of triplicates and repeated three times each individual experiments*P<0.05, **P <0.01, ***P<0.001, **** P<0.0001, ns, non-significant. (Student's t-test and one-way ANOVA).

[4] = molecular target: T1, GAPR-1; test: MicroScale Thermophoresis (MST), peptide titrated on purified Gapr-1; fraction bound against peptide conc. (M) [3A]
[5] = molecular target: T1, GAPR-1; test: MicroScale Thermophoresis (MST), purified Gapr-1
[6] = FVB mice infected with S. typhimurium

Molecule | interference with phosphorylation of p70S6K and mTOR activity [1] | Kd [5] [nM] | also measured
CC(C)C[C@H](NC(=O)[C@H](Cc1ccc(O)cc1)NC(=O)[C@H](CO)NC(=O)[C@H](Cc1c[nH]cn1)NC(=O)[C@H](CC(N)=O)NC(=O)CNC(=O)[C@H](Cc1ccc(O)cc1)NC(=O)[C@@H]1CCCN1C(=O)[C@@H](NC(=O)[C@H](CC(C)C)NC(=O)[C@@H](N)CCCNC(=N)N)C(C)C)C(=O)N[C@@H](CCC(=O)O)C(=O)N[C@@H](CO)C(=O)O [P13T] (H-RLVPYGNHSYLES-OH) | did not interfere with the phosphorylation of p70S6K and mTOR activity | – | –
CC(C)C[C@H](NC(=O)CNC(=O)CNC(=O)[C@H](CO)NC(=O)[C@H](CS)NC(=O)[C@H](Cc1ccc(O)cc1)NC(=O)[C@@H](N)CC(C)C)C(=O)N[C@@H](CCCNC(=N)N)C(=O)N[C@@H](Cc1ccccc1)C(=O)N[C@@H](Cc1ccccc1)C(=O)N[C@@H](Cc1c[nH]c2ccccc12)C(=O)N[C@@H](CC(=O)O)C(=O)O [P8T] (H-LYCSGGLRFFWD-OH) | – | – | inhibition of S. typhimurium [2]: 62.16%
CC[C@H](C)[C@H](NC(=O)[C@@H](NC(=O)CNC(=O)[C@@H](N)Cc1ccccc1)[C@@H](C)O)C(=O)N[C@@H](CC(N)=O)C(=O)N[C@@H](CC(N)=O)C(=O)N[C@@H](Cc1ccccc1)C(=O)N[C@@H](CCCNC(=N)N)C(=O)N[C@@H](CC(C)C)C(=O)O [P7T] (H-FGTINNFRL-OH) | did not interfere with the phosphorylation of p70S6K and mTOR activity | – | bacterial burden in faecal sample / stool ([3]; FVB mice infected orally with Xen-33, stool plated on SS agar): significant decrease in bacterial burden; length of the colon [3, 6]: significantly reduced in untreated mice compare to P7T; splenomegaly [3, 6]: difference in splenomegaly was not observed; histopathology score ([3]; intestine/colon H&E staining, FVB mice infected with S. typhimurium): significantly less
NC(=O)C[C@H](NC(=O)CNC(=O)[C@H](Cc1ccc(O)cc1)NC(=O)[C@@H]1CCCN1)C(=O)N[C@@H](Cc1c[nH]cn1)C(=O)N[C@@H](CO)C(=O)N[C@@H](Cc1ccc(O)cc1)C(=O)O [P3T] (H-PYGNHSY-OH; N-terminus and C-terminus assumed) | – | – | inhibition of S. typhimurium [2]: 49.5%
CC(C)C[C@H](NC(=O)[C@H](C)NC(=O)[C@H](Cc1c[nH]cn1)NC(=O)[C@H](CC(C)C)NC(=O)[C@H](CC(C)C)NC(=O)[C@H](CC(C)C)NC(=O)[C@@H](NC(=O)[C@@H](NC(=O)[C@@H](N)CCC(N)=O)[C@@H](C)O)C(C)C)C(=O)O [P9T] (H-QTVLLLHAL-OH) | did not interfere with the phosphorylation of p70S6K and mTOR activity | – | –
PYGNHSY (also called peptide P3T) [P3T] | – | – | Kd [4]: 210 nM
FGTINNFRL (also called peptide P7T) [P7T] | – | 130 | –
LYCSGGLRFFWD (also called peptide P8T) [P8T] | – | 120 | –
QTVLLLHAL (also called peptide P9T) [P9T] | – | 1560 | –
RLVPYGNHSYLES (also called peptide P13T) [P13T] | – | 70 | –
